Measured values from patent US9403822B2, “Apoptosis-inducing agents for the treatment of cancer and immune and autoimmune diseases” (AbbVie Inc., priority 2010, dated 2016).
Read-outs that look alike come from different tables or passages of the source.

Columns and labels:
[1] = Solubility determination in aqueous media; settings: for solubility: phosphate buffer, pH 7.4, aqueous buffer, thermodynamic from solid
Experimental: Reagents used included 0.1 N HCl, J T Baker Lot G08515; and 50 mM Phosphate pH 7.4, μ=0.155 w/NaCl, NB93214-089, Equipment/Instruments used included balance: Mettler Toledo, UMX2, LC805269; Rainin Pipette; 1000 μL RF09683 μL, 200 μL, RF20783; water bath: Vankel, LC 954896, set at 25° C. and 25 RPM, Thermometer: TB085699); and water bath: Vankel, LC 127535, set at 37° C. and 25 RPM, Thermometer: TB096544).
Examples were tested in aqueous media at 25° C. or 37° C. Excess amount of the bulk drug was weighed out and mixed with an aliquot of target media in a clear glass vial. The vial was sealed with cap and wrapped with aluminum foil, then tumbled in a 25° C. or 37° C. water bath as appropriate. When equilibration was completed, she samples were removed from the water bath and the final pH's were measured. The suspensions were filtered through 4 mm, 0.2 μm Millex-LG syringe filters (hydrophilic PTFE membrane, Millipore, Lot N9JN70696). Each filter was used only for one sample and the first three droplets were discarded. The filtrate was assayed after appropriate dilution with the same solvent as used for stock solution. Three replicates were prepared. The concentration of the sample was calculated against the calibration curve for the compound.

GST-Bcl-2 = GST-Bcl-2 (Homo sapiens (Human), UniProt P10415); assay: Time Resolved-Fluorescence Resonance Energy Transfer (TR-FRET) Bcl-2 binding assay; settings: F-Bak peptide probe 100 nM, GST-Bcl-2 1 nM, Tb-anti-GST 1 nM; Wang's equation
Sequence of GST-Bcl-2 (P10415 whole entry): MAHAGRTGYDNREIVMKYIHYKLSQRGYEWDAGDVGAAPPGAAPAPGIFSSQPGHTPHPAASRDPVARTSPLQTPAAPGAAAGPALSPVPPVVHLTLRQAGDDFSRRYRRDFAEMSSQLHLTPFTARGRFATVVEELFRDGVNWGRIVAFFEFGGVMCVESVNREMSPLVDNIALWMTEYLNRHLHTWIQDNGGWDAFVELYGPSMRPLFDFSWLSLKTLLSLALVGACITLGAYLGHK
Experimental: Determination of the utility of compounds having Formula (I) as binders to and inhibitors of anti-apoptotic Bcl-2 proteins was performed using the Time Resolved-Fluorescence Resonance Energy Transfer (TR-FRET) Assay. Tb-anti-GST antibody was purchased from Invitrogen (Catalog No. PV4216). Representative compounds were serially diluted in dimethyl sulfoxide (DMSO) starting at 50 μM (2× starting concentration; 10% DMSO) and 10 μL were transferred into a 384-well plate. […] For each assay, the probe/antibody and protein/probe/antibody were included on each assay plate as negative and positive controls, respectively. Fluorescence was measured on the ENVISION plate reader (Perkin Elmer) using a 340/35 nm excitation filter and 520/525 (F-Bak peptide) and 495/510 nm (Tb-labeled anti-Histidine antibody) emission filters. Inhibition constants (Ki) are shown in TABLE 2 below and were determined using Wang's equation (Wang Z.-X. An Exact Mathematical Expression For Describing Competitive Binding Of Two Different Ligands To A Protein Molecule. FEBS Lett. 1995, 360:111-4).

RS4;11 cells = assay: RS4;11 cell viability assay (CellTiter Glo); type: cell-based; settings: acute lymphoblastic leukemia cell line RS4;11, 10% human serum, 48 hours
From the text: The acute lymphoblastic leukemia (ALL) cell line RS4;11 was used as the primary human cell line to assess the cellular activity of Bcl-2 selective agents in vitro and their efficacy in vivo. Previous studies have shown by BH3 profiling, a mitochondrial assay that classifies blocks in the intrinsic apoptotic pathway, that RS4;11 cells were highly dependant on BCL-2 for survival and sensitive to the Bcl-2 family member inhibitor ABT-737 (Blood, 2008, Vol. III, 2300-2309).
RS4;11 cells were cultured in RPMI-1640 supplemented with 2 mM L-glutamine, 10% FBS, 1 mM sodium pyruvate, 2 mM HEPES, 1% penicillin/streptomycin (Invitrogen), 4.5 g/L glucose and maintained at 37 C containing 5% CO2. To test for the cellular activity of compounds in vitro, cells were treated at 50,000 cells per well in 96-well microliter plates in the presence of 10% human serum for 48 hours in a humidified chamber with 5% CO2. Cell cytotoxicity EC50 values were assessed using CellTiter Glo (Promega) according to the manufacturers recommendations. The EC50 values were determined as a percentage of viable cells following treatment compared to the untreated control cells.

solubility [1] | EC50 (RS4;11 cells) | Aqueous Solubility (pH 7.4) | Compound | Ki (GST-Bcl-2) | Aqueous Solubility (pH 7.4) ([1]; 50 mM phosphate pH 7.4, 25° C. or 37° C.)
< 4 µg/mL | – | – | CC1(C)CCC(CN2CCN(c3ccc(C(=O)NS(=O)(=O)c4ccc(NCC5CCOCC5)c([N+](=O)[O-])c4)c(Oc4cnc5[nH]ccc5c4)c3)CC2)=C(c2ccc(Cl)cc2)C1 [Example 2B, 4-(4-{[2-(4-chlorophenyl)-4,4-dimethylcyclohex-1-en-1-yl]methyl}piperazin-1-yl)-N-({3-nitro-4-[(tetrahydro-2H-pyran-4-ylmethyl)amino]phenyl}sulfonyl)-2-(1H-pyrrolo[2,3-b]pyridin-5-yloxy)benzamide] | – | –
< 1 µg/mL | – | – | CC1(C)CCC(CN2CCN(c3ccc(C(=O)NS(=O)(=O)c4ccc(OCC5(F)CCOCC5)c([N+](=O)[O-])c4)c(Oc4cnc5[nH]ccc5c4)c3)CC2)=C(c2ccc(Cl)cc2)C1 [Example 3E, 4-(4-{[2-(4-chlorophenyl)-4,4-dimethylcyclohex-1-en-1-yl]methyl}piperazin-1-yl)-N-({4-[(4-fluorotetrahydro-2H-pyran-4-yl)methoxy]-3-nitrophenyl}sulfonyl)-2-(1H-pyrrolo[2,3-b]pyridin-5-yloxy)benzamide] | – | –
< 1 µg/mL | – | – | CO[C@H]1CC[C@H](CNc2ccc(S(=O)(=O)NC(=O)c3ccc(N4CCN(CC5=C(c6ccc(Cl)cc6)CC(C)(C)CC5)CC4)cc3Oc3cnc4[nH]ccc4c3)cc2[N+](=O)[O-])CC1 [Example 1M, Trans-4-(4-{[2-(4-chlorophenyl)-4,4-dimethylcyclohex-1-en-1-yl]methyl}piperazin-1-yl)-N-[(4-{[(4-methoxycyclohexyl)methyl]amino}-3-nitrophenyl)sulfonyl]-2-(1H-pyrrolo[2,3-b]pyridin-5-yloxy)benzamide] | – | –

The remaining lines, values behind:

Compound | solubility [1] | EC50 (RS4;11 cells) | Aqueous Solubility (pH 7.4) | Ki (GST-Bcl-2) | Aqueous Solubility (pH 7.4) ([1]; 50 mM phosphate pH 7.4, 25° C. or 37° C.)
CC1(C)CCC(CN2CCN(c3ccc(C(=O)NS(=O)(=O)c4ccc(OC[C@H]5CC[C@H](O)CC5)c([N+](=O)[O-])c4)c(Oc4cnc5[nH]ccc5c4)c3)CC2)=C(c2ccc(Cl)cc2)C1 [Example 7, Trans-4-(4-{[2-(4-chlorophenyl)-4,4-dimethylcyclohex-1-en-1-yl]methyl}piperazin-1-yl)-N-({4-[(4 hydroxycyclohexyl)methoxy]-3-nitrophenyl}sulfonyl)-2-(1H-pyrrolo[2,3-b]pyridin-5-yloxy)benzamide] | < 1 µg/mL | – | – | – | –
CO[C@H]1CC[C@H](CNc2ccc(S(=O)(=O)NC(=O)c3ccc(N4CCN(CC5=C(c6ccc(Cl)cc6)CC(C)(C)CC5)CC4)cc3Oc3cc4ccnc-4n(COP(=O)(O)O)c3)cc2[N+](=O)[O-])CC1 [Example 1, {5-[5-(4-{[2-(4-chlorophenyl)-4,4-dimethylcyclohex-1-en-1-yl]methyl}piperazin-1-yl)-2-{[(4-{[(trans-4-methoxycyclohexyl)methyl]amino}-3-nitrophenyl)sulfonyl]carbamoyl}phenoxy]-7H-pyrrolo[2,3-b]pyridin-7-yl}methyl dihydrogen phosphate] | – | 310 nM | – | < 0.01 nM | >1159 ug/mL
3-[(4-{[4-(4-{[2-(4-chlorophenyl)-4,4-dimethylcyclohex-1-en-1-yl]methyl}piperazin-1-yl)-2-(1H-pyrrolo[2,3-b]pyridin-5-yloxy)benzoyl]sulfamoyl}-2-nitrophenyl)amino]-2,2-dimethylpropyl dihydrogen phosphate [Example 4] | – | > 1000 nM | 169 ug/mL | < 0.01 nM | –
CC(C)(CO)CNc1ccc(S(=O)(=O)NC(=O)c2ccc(N3CCN(CC4=C(c5ccc(Cl)cc5)CC(C)(C)CC4)CC3)cc2Oc2cnc3[nH]ccc3c2)cc1[N+](=O)[O-] [Example 6, 4-(4-{[2-(4-chlorophenyl)-4,4-dimethylcyclohex-1-en-1-yl]methyl}piperazin-1-yl)-N-({4-[(3-hydroxy-2,2-dimethylpropyl)amino]-3-nitrophenyl}sulfonyl)-2-(1H-pyrrolo[2,3-b]pyridin-5-yloxy)benzamide] | < 1 µg/mL | – | – | – | –
trans-4-[(4-{[4-(4-{[2-(4-chlorophenyl)-4,4-dimethylcyclohex-1-en-1-yl]methyl}piperazin-1-yl)-2-(1H-pyrrolo[2,3-b]pyridin-5-yloxy)benzoyl]sulfamoyl}-2-nitrophenoxy)methyl]cyclohexyl dihydrogen phosphate [Example 5] | – | 42 nM | >6580 ug/mL | – | –
(5-{5-(4-{[2-(4-chlorophenyl)-4,4-dimethylcyclohex-1-en-1-yl]methyl}piperazin-1-yl)-2-[({3-nitro-4-[(tetrahydro-2H-pyran-4-ylmethyl)amino]phenyl}sulfonyl)carbamoyl]phenoxy}-7H-pyrrolo[2,3-b]pyridin-7-yl)methyl dihydrogen phosphate [Example 2] | – | 180 nM | >4820 ug/mL | < 0.01 nM | –
(5-{5-(4-{[2-(4-chlorophenyl)-4,4-dimethylcyclohex-1-en-1-yl]methyl}piperazin-1-yl)-2-[({4-[(4-fluorotetrahydro-2H-pyran-4-yl)methoxy]-3-nitrophenyl}sulfonyl)carbamoyl]phenoxy}-7H-pyrrolo[2,3-b]pyridin-7-yl)methyl dihydrogen phosphate [Example 3] | – | 41 nM | >10850 ug/mL | – | –
